In assay [1] the test system is Mus musculus. Put plainly: Anticonvulsant activity in OF1 mouse at 30 mg/kg, ip after 2 hrs by MES test. The settings on record: route intraperitoneal. It is filed as functional.
In the next assay the target is Carbonic anhydrase 9 (Homo sapiens, UniProt Q16790).
The subject of assay [2] is Mus musculus. Put plainly: Anticonvulsant activity in OF1 mouse at 50 mg/kg, ip after 2 hrs by MES test. It is filed as functional. The settings on record: route intraperitoneal.

10 compounds from ChEMBL document CHEMBL1147915, “Carbonic anhydrase inhibitors. Inhibition of isoforms I, II, IV, VA, VII, IX, and XIV with sulfonamides incorporating fructopyranose-thioureido tails” (Bioorg Med Chem Lett, 2007) can be followed below.

For orientation: Ki means a dissociation constant, usually derived from enzyme kinetics or from competition with a known ligand. High values mean a looser hold on the target, low ones a stronger hold on the target.

Description for Carbonic anhydrase 9: Inhibition of human recombinant CA9 after 15 mins by CO2 hydration stopped flow assay

Take `NC(=O)N1c2ccccc2C=Cc2ccccc21` [CARBAMAZEPINE]: the Activity in the assay on Mus musculus [1] turned out to be 100%.
At Carbonic anhydrase 9, `CC1(C)O[C@@H]2[C@@H](CO[C@@]3(CNC(=S)Nc4ccc(S(N)(=O)=O)cc4)OC(C)(C)O[C@@H]23)O1` gave an inhibitory constant (Ki) of 82 nM. This compound also yielded an Activity in the assay with Mus musculus [2] of 0%.
Regarding `CC1(C)O[C@@H]2[C@@H](CO[C@@]3(CNC(=S)NCCc4ccc(S(N)(=O)=O)cc4)OC(C)(C)O[C@@H]23)O1`, the Activity in the assay with Mus musculus [2] amounted to 0%.
Compound `CC1(C)O[C@@H]2[C@@H](CO[C@@]3(CNC(=S)Nc4ccc(S(=O)(=O)Nc5nnc(S(N)(=O)=O)s5)cc4F)OC(C)(C)O[C@@H]23)O1` registered a Ki at Carbonic anhydrase 9 of 76 nM. In the assay with Mus musculus [2], the Activity was 0%.
The like results for `CC1(C)O[C@@H]2[C@@H](CO[C@@]3(CNC(=S)Nc4ccc(S(N)(=O)=O)cc4F)OC(C)(C)O[C@@H]23)O1` were, in that order, 110 nM and 87.5%.
The like results for `CC1(C)O[C@@H]2[C@@H](CO[C@@]3(CNC(=S)Nc4ccc(S(=O)(=O)NCc5ccc(S(N)(=O)=O)cc5)cc4F)OC(C)(C)O[C@@H]23)O1` were, in that order, 11 nM and 20%.
The like results for `CC1(C)O[C@@H]2[C@@H](CO[C@@]3(CNC(=S)Nc4ccc(S(N)(=O)=O)cc4Cl)OC(C)(C)O[C@@H]23)O1` were, in that order, 134 nM and 0%.
`O=C1NC(=O)C(c2ccccc2)(c2ccccc2)N1` [PHENYTOIN] came in with an Activity in the assay on Mus musculus [1] of 100%.
In the assay on Mus musculus [2], `CC1(C)O[C@@H]2[C@@H](CO[C@@]3(COS(N)(=O)=O)OC(C)(C)O[C@@H]23)O1` [TOPIRAMATE] displayed an Activity of 68.75%.
On Carbonic anhydrase 9, `CC1(C)O[C@@H]2[C@@H](CO[C@@]3(CNC(=S)Nc4cccc(S(N)(=O)=O)c4)OC(C)(C)O[C@@H]23)O1` returned a Ki of 4500 nM. For the same compound, the Activity in the assay with Mus musculus [2] turned out to be 0%.
